# ChEMBL document CHEMBL1201862, “PubChem BioAssay data set” (2004)
# Active and inactive are the calls of the source. Cut-off read from the data, not from the text of the source, for most assays here: actives have a measured EC50 and inactives only a lower limit.
# Key:
# [1] = molecular target: T1, Heat shock factor protein 1 (Mus musculus, UniProt P38532); experiment: inhibition of MG132-induced HSE-luciferase signal, confirmation, cell-based, NIH3T3, luminescence, dose retest (AID 2382); format: functional;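 note: NIH3T3 fibroblasts with HSF1-driven luciferase reporter stressed by proteasome inhibitor MG132; luminescence from HSF1-driven luciferase expression after 8 hours of MG132 stress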
# T1 sequence (P38532 whole entry): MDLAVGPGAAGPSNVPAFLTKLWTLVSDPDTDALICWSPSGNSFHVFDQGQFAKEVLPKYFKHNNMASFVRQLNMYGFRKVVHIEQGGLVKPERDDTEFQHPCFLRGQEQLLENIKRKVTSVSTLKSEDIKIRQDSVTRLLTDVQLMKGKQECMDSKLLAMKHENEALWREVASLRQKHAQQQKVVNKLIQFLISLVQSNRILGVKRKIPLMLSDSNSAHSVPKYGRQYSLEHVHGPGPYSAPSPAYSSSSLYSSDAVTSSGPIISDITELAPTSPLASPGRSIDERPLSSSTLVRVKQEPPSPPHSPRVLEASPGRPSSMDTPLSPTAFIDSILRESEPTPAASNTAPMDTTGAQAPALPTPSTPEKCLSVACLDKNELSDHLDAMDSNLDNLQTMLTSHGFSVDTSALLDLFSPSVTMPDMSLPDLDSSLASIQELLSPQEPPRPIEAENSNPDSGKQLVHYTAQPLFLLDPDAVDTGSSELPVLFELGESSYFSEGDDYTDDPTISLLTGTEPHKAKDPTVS
# [2] = molecular target: T2, RNA-binding protein pos-1 (Caenorhabditis elegans, UniProt G5EF15); experiment: inhibitors of POS-1/mex-3 RNA binding, dose response, biochemical, fluorescence polarization (AID 1964);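 note: purified POS-1 fused to maltose binding protein made in E. coli; potency of compounds blocking POS-1 binding to fluorescent RNA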
# T2 sequence (G5EF15 whole entry): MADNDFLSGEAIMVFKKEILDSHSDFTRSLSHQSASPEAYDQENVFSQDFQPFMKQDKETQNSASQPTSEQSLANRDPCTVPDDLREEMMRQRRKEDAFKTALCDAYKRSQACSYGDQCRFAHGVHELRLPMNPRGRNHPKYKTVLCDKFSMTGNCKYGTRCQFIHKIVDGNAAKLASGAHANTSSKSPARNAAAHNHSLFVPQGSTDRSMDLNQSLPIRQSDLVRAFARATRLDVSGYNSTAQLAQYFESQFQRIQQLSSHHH
# [3] = molecular target: T3, Zinc finger protein mex-5 (Caenorhabditis elegans, UniProt Q9XUB2); experiment: MEX-5/TCR-2 RNA interaction inhibitors, dose response, biochemical, C. elegans, fluorescence polarization (AID 1960)
# T3 sequence (Q9XUB2 whole entry): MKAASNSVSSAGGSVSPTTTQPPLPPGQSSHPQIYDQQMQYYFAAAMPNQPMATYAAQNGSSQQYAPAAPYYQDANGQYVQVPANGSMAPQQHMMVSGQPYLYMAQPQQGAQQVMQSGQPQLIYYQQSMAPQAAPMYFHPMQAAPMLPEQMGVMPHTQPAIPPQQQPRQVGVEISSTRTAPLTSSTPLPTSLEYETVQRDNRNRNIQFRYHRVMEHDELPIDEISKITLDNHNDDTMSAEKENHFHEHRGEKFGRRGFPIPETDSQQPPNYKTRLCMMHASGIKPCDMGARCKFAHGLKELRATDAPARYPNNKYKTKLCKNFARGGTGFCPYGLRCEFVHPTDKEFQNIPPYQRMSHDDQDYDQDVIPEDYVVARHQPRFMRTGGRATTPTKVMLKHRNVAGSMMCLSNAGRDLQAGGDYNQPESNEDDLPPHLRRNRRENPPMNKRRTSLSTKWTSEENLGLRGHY
# [4] = molecular target: T4, Rac GTPase-activating protein 1 (Homo sapiens, UniProt Q9H0H5); experiment: MgcRacGAP GTPase-activating activity inhibitors, confirmation, biochemical, ADP Hunter fluorescence, primary and confirmatory (AID 624330); format: functional
# T4 sequence (Q9H0H5 whole entry): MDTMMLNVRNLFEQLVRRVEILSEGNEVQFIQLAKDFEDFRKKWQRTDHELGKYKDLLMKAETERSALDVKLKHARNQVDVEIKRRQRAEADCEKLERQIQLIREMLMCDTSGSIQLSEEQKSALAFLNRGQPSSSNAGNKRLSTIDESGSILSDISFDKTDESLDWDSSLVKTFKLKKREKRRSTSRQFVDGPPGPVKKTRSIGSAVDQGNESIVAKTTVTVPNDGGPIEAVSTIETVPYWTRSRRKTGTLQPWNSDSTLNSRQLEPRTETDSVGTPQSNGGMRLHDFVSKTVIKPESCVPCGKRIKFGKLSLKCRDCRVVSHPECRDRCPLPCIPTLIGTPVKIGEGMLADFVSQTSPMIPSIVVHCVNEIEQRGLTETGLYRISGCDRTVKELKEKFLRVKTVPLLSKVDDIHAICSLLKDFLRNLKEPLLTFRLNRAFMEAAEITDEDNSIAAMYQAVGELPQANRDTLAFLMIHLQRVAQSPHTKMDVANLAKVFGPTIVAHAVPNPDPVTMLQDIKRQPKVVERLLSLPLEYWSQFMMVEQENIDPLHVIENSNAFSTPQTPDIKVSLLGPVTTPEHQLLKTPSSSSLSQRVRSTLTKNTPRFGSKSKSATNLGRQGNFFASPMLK
# [5] = molecular target: T1, Heat shock factor protein 1; experiment: HSF1 potentiators in luciferase reporter cells, confirmation, cell-based, NIH3T3, luminescence, dose retest (AID 435004); format: functional;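 note: stress induced by proteasome inhibitor MG132 added 30 min after compound; luciferase reporter driven by HSF1 response element in NIH3T3 cells; actives raise luminescence as potentiators of the MG132 stress response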
# [6] = molecular target: T5, Corticotropin-releasing factor receptor 2/Corticotropin-releasing factor-binding protein (Homo sapiens, UniProt P24387+Q13324); experiment: Dose Response confirmation of uHTS hits for small molecule antagonists of the CRF-binding protein and CRF-R2 receptor complex.; format: functional; settings: read-out: IC50_Mean
# T5 sequence (Q13324 whole entry): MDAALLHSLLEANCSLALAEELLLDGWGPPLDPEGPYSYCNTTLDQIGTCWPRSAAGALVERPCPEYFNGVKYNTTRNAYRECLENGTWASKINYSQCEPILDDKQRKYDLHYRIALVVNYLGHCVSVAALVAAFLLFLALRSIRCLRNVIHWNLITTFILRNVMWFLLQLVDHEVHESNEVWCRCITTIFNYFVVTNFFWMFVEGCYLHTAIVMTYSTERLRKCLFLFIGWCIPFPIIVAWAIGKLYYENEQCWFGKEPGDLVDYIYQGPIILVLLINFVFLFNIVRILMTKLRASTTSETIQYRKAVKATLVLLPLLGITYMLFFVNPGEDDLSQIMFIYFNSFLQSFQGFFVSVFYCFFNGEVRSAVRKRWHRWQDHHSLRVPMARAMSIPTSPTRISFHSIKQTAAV
# T5 sequence (P24387 whole entry): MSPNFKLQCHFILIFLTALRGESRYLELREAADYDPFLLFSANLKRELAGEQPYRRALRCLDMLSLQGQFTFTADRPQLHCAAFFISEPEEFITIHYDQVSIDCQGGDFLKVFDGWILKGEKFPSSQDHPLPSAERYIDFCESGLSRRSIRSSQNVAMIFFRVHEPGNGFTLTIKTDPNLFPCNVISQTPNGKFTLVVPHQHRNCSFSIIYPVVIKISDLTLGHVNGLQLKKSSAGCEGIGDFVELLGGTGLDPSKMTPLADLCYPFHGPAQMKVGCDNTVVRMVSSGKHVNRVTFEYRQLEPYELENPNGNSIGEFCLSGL
# [7] = molecular target: T5, Corticotropin-releasing factor receptor 2/Corticotropin-releasing factor-binding protein; experiment: activators of CRF receptor 2 with binding protein – uHTS hits, confirmation (AID 602473); format: functional; settings: read-out: EC50_Mean
smiles,measurement,setting,value
Cc1ccc2c(c1)N(CC(=O)O)C(=O)CO2,EC50,[1],> 195 µM (not active)
O=C(O)c1cc(S(=O)(=O)N(Cc2ccccc2)c2ccccc2Cl)ccc1Cl,EC50,[1],> 195 µM (not active)
Cc1cc(C)c(NC(=O)CSc2nnc(-c3ccncc3)n2Cc2ccco2)c(Cl)c1,EC50,[1],> 195 µM (not active)
COc1cccc(C(=O)NNc2nc(C)cc(C)n2)c1,EC50,[2],> 300 µM (not active)
same,EC50,[3],127 µM (active)
Oc1ccc(-c2csc(Nc3ncccn3)n2)cc1,IC50,[4],21.4 µM (active)
CC(C)Cc1ccc(C#N)c(SCC(N)=O)n1,EC50,[1],> 195 µM (not active)
CSc1ccc(C(=O)C2CCCN(Cc3cccnc3)C2)cc1 (centres undefined),EC50,[5],> 260 µM (inactive)
Cc1cc(-c2nc3ncccc3o2)ccc1NC(=S)NC(=O)C(C)C,EC50,[5],> 260 µM (inactive)
O=C(CN1CCN(c2ccccn2)CC1)Nc1ccc(F)cc1,IC50,[4],78.9 µM (active)
O=C1CC(N2CCC(c3nc4ccccc4[nH]3)CC2)C(=O)N1c1ccccc1F (centres undefined),EC50,[5],> 260 µM (inactive)
CC(C)C(=O)N1c2ccccc2N=C2CCCC(O)=C2C1c1ccc(N(C)C)cc1 (centres undefined),EC50,[1],> 195 µM (not active)
CCCC(C)NC(=O)c1ccc(C2SCC(=O)N2Cc2ccco2)cc1 (centres undefined),EC50,[2],> 300 µM (not active)
same,EC50,[3],> 300 µM (not active)
COc1ccc(NC(=O)C(=O)NCC(=O)Nc2cccc(C(F)(F)F)c2)cc1,IC50,[6],> 47.1 µM (inactive)
same,EC50,[7],> 53 µM (inactive)
COc1cc(/C=C/C(=O)OCC(=O)NCCC2=CCCCC2)ccc1O,IC50,[4],49 µM (active)
O=C(c1cccc([N+](=O)[O-])c1)c1ccc2c(c1)OCCOCCOCCO2,IC50,[6],> 47.1 µM (inactive)
same,EC50,[7],> 53 µM (inactive)
O=C(CNC(=O)C1CCCCC1)OCC(=O)c1ccc(Br)cc1,EC50,[5],> 260 µM (inactive)
CCOC(=O)C1C(=O)OC(C)(C)C1C(C)C(=O)c1ccc(C)cc1C (centres undefined),EC50,[5],> 260 µM (inactive)
CCN(CC)P(=O)(NC(=O)c1cccn1C)N(CC)CC,EC50,[1],> 195 µM (not active)
CC(NC(=O)c1ccc(C(C)(C)C)cc1)C(c1cccs1)N1CCOCC1 (centres undefined),EC50,[5],> 260 µM (inactive)
OCCC1CN(Cc2cccc(-n3cccn3)c2)CCN1Cc1ccccc1 (centres undefined),EC50,[1],> 195 µM (not active)
CC(C)CNC(=O)c1noc2c1CCCC2,EC50,[1],> 195 µM (not active)
Nc1nc(CN2CCc3ccccc3C2)nc(Nc2ccccc2)n1,IC50,[6],> 47.1 µM (inactive)
same,EC50,[7],> 53 µM (inactive)
C#CCOc1ccccc1CNC1CCN(Cc2ccccc2)CC1,IC50,[4],64.9 µM (active)
COC(=O)c1cccc(N2C(=O)C3CC=CCC3C2=O)c1 (centres undefined),EC50,[1],> 100 µM (not active)
CCN(C(=O)COC(=O)Cc1cccc2ccccc12)C1CCS(=O)(=O)C1 (centres undefined),IC50,[6],> 47.1 µM (inactive)
same,EC50,[7],> 53 µM (inactive)
Cc1nc(Nc2ccccc2)sc1C,EC50,[1],> 195 µM (not active)
COC(=O)C1=C(C)N(Cc2ccco2)C(=O)C1,EC50,[1],> 195 µM (not active)
CC1=CC(C)(C)N2C(=O)C3(C(C#N)=C(N)OC4=C3C(=O)CCC4)c3c(C)c(C)cc1c32 (centres undefined),EC50,[2],> 300 µM (not active)
same,EC50,[3],> 300 µM (not active)
COc1ccccc1C(=O)OCC(=O)c1cccc([N+](=O)[O-])c1,EC50,[1],> 195 µM (not active)
COc1ccc(N2CCN(c3ccc(C(N)=O)cc3[N+](=O)[O-])CC2)cc1,IC50,[4],158 µM (active)
COc1ccccc1-c1cc(C(=O)NN)[nH]n1,IC50,[6],> 47.1 µM (inactive)
same,EC50,[7],> 53 µM (inactive)
O=C(Nc1cccc(Cl)c1)N(Cc1nc(O)c2ccccc2n1)C1CCCC1,EC50,[5],> 260 µM (inactive)
CC1CC(C)CN(CC(=O)NC(c2ccccc2)c2ccccc2)C1 (centres undefined),IC50,[4],231 µM (active)
O=C(CCNC(=O)c1ccc(Cl)cc1)Nc1ncccc1O,EC50,[1],> 195 µM (not active)
CCCC(C(=O)NCc1ccco1)N(C(=O)CNS(=O)(=O)c1ccc(Cl)cc1)C1CCCC1 (centres undefined),EC50,[5],> 260 µM (inactive)
CCOC(=O)c1[nH]c2ccc(OC)cc2c1NC(=O)c1ccccc1C(=O)O,IC50,[4],109 µM (active)
CN1CCN(S(=O)(=O)c2cccc(C(=O)NCCC3=CCCCC3)c2)CC1,EC50,[1],> 195 µM (not active)
COc1ccc(CNC(=O)CN2CCN(c3ccc(F)cc3)CC2)cc1,IC50,[6],> 47.1 µM (inactive)
same,EC50,[7],> 53 µM (inactive)
Cc1ccc(/C(O)=C/c2nc3cc(C)ccc3oc2=O)cc1,EC50,[2],7.64 µM (inconclusive)
same,EC50,[3],1.64 µM (inconclusive)
N=C(Cc1ccc([N+](=O)[O-])cc1)NOC(=O)c1ccc(Br)cc1,IC50,[6],9.38 µM (active)
same,EC50,[7],> 53 µM (inactive)
CC(C)c1ccc(CNc2ccc(N3CCOCC3)cc2)cc1,IC50,[4],12.4 µM (active)
CCOc1ccccc1Nc1ccnc2cc(Cl)ccc12,IC50,[6],> 47.1 µM (inactive)
same,EC50,[7],> 53 µM (inactive)
CCn1c(S)nc2c(=O)n(C)c(=O)n(C)c21,IC50,[4],21.1 µM (active)
COc1ccc(-c2nc(C#N)c(N3CCCCC3)o2)cc1,EC50,[5],> 260 µM (inactive)
Cc1nn(-c2ccccc2)c(C)c1NC(=O)COC(=O)c1ccccc1OC(F)F,IC50,[6],> 47.1 µM (inactive)
same,EC50,[7],> 53 µM (inactive)
COc1cc(C(=O)NCc2ccccc2Cl)ccc1OCC(=O)N1CCOCC1,IC50,[6],> 47.1 µM (inactive)
same,EC50,[7],> 53 µM (inactive)
Oc1ccc(/C=N/NC2=NCCCCC2)c(O)c1,IC50,[4],43.2 µM (active)
CC1(C)CC(=O)C=C(Nc2ccc(Br)cc2F)C1,EC50,[1],> 195 µM (not active)
Cc1ccccc1[N+](=O)[O-],IC50,[6],> 47.1 µM (inactive)
same,EC50,[7],> 53 µM (inactive)
